{"source": "patent US11207289B2", "about": "“Use of benzofuran lignans to induce IL-25 expression and suppress mammary tumor metastasis” (ACADEMIA SINICA, priority 2016, dated 2021)", "key": {"[1]": {"tested_on": "4T1-Luc2 cells", "assay": "4T1-Luc2 mammary carcinoma tumor resection model: metastasis and survival", "format": "in vivo, BALB/c mice", "protocol": "BALB/c mice were subcutaneously injected with 4T1-Luc2 cells (5×10^5/100 μl PBS/mouse) into the fourth mammary fat pad under isoflurane anesthesia. Tumor growth was monitored by measuring the tumor volume according to the formula: volume=length×(width)^2/2. After tumors were established (180-200 mm^3) on day 14, test mice were divided into different groups (8 mice/group) and subjected to different treatments. At 15 days post tumor cell implantation, primary 4T1 tumors in situ were surgically removed by a tumor resection process. For drug treatment, mice were administered with different agents, including vehicle-control (PBS), mouse IL-25 protein (10 μg/kg, ProSpec, Vineland, N.J.), Q2-3 (2, […]; […]), by intravenous injection for 3 weeks (3 injections/week) post tumor resection. For in vivo neutralization of mouse IL-25 activity, mice were treated intraperitoneally with either 100 μg anti-mouse IL-25 (IL-17E) antibody (clone 35B; Biolegend) or isotype control rat IgG (100 μg; rat, IgG1κ; Biolegend) at days 0, 3, 6, 9, 12, 15, 18 post tumor resection. To detect metastasis of human MDA-MD-231-Luc2 tumor cells, nude mice were injected subcutaneously with 5×10^5 MDA-MD-231-Luc2 cells into the mammary fat pad under isoflurane anesthesia. After tumors were established (250-350 mm^3) on day 24, test mice were divided into different groups (8 mice/group) and subjected to different treatments. At 25 days post tumor cell implantation, primary MDA-MD-231-Luc2 tumors in situ were surgically removed by a tumor resection process. […] Bioluminescence signals from the 4T1-luc2 tumor cells in test mice were analyzed using a non-invasive IVIS imaging system (Calipers, Hopkinton, Mass.) after intraperitoneal injection of 150 mg/kg D-luciferin (NanoLight technology, Pinetop, Ariz.).\nStatistical analysis was performed using an unpaired, two-tailed Student's t-test. […] Differences in tumor metastasis or mouse survival rate were determined by a log-rank (Mantel-Cox) test of the Kaplan-Meier curves. […]"}, "[2]": {"tested_on": "mouse IL-25", "assay": "3-D culture, western blot of IL-25 in 3T3 fibroblasts and 3T3-CM", "format": "cell-based", "protocol": "To mimic the tumor microenvironment, a 3-dimensional (3-D) co-culture system was employed for the maintenance of mammary tumor cells and tumor-associated fibroblasts in adjacent collagen gels as reported in Rajan et al., Nature protocols, 1, 2753-2758 (2006). More specifically, rat tail collagen solution dissolved in acetic acid was neutralized by 1 N NaOH and then mixed with 10×PBS at 4° C. in a ratio of 9:1. To construct solid tumor-like cell mass, mouse (4T1 or TS/A cells) or human (MCF-7 or MDA-MB-231 cells) mammary tumor cells in each correspondent culture medium (1×10^6 cells/ml) were mixed with 4 mg/ml collagen solution in a ratio of 1:1. Four drops of collagen-tumor cell mixture ([…]) were immediately and separately loaded on culture substratum in each well of a 6-well plate. The plates were then turned-over and kept in CO2 incubator at 37° C. for collagen gelation. […]\nTo pull down and deplete IL-25 protein molecules in 3T3 or MDA-MB-231 cell conditioned media, the Dynabeads antibody coupling kit (Life Technology; 14311D) was used according to the manufacturer's recommendations, yielding 10 mg/ml anti-IL25 antibody (ProteinTech, Chicago, Ill.)-coupled beads. […] The antibody-pulled down proteins from 3T3-CM, NHDF-CM or WI38-CM, were detected for the content of secreted IL-25 protein in each conditioned medium using western blot analysis. […]"}}}
{"smiles": "COC(=O)/C=C/c1cc(O)c2c(c1)C(C(=O)OC)C(c1ccc(O)c(O)c1)O2", "note": "(centres unmarked) [Q2-3, methyl(E)-3-[2-(3,4-dihydroxyphenyl)-7-hydroxy-3-methoxycarbonyl-2,3-dihydro-1-benzofuran-5yl]-prop-2-enoate]", "values": [{"measurement": "survival rate of tumor-resected mice", "setting": "[1]; 4T1 tumor resection model", "value": "significantly increased"}, {"measurement": "metastasis of 4T1 cells to the lung (luminescent activity)", "setting": "[1]; ≥20 μg/kg i.v., 3 injections/week for 3 weeks post tumor resection", "value": "significantly suppress"}, {"measurement": "anti-metastatic activity compared with doxorubicin (2 mg/kg)", "setting": "[1]; ≥20 μg/kg, luciferase activity", "value": "much higher anti-metastatic activity than treatment with doxorubicin"}, {"measurement": "expression of IL-25 in mouse (3T3) fibroblasts", "setting": "[2]; 3-D culture, treatment 24 h or 72 h", "value": "increased"}, {"measurement": "level of secreted IL-25 in fibroblast-conditioned medium vs untreated", "setting": "[2]; 3T3-CM", "value": "significantly higher"}]}
